Values of other authors, collected in patent publication US20080254143A1, “COMPOSITION FOR IMPROVING IMMUNE SYSTEM HEALTH” (priority 2007, published 2008).

What was measured:
common cold [1] = settings: administered or recruited within 24 hrs of the onset of symptoms
common cold [2] = settings: daily supplementation, amounts greater than 100 mg
rhinovirus = settings: prevents formation of viral capsid proteins
TNF-α = settings: activated macrophages (LPS/IFN-gamma-activated RAW 264.7)

| Molecule | duration and severity of symptoms of a common cold (common cold [1]) | further results |
| --- | --- | --- |
| CC(=O)[O-].CC(=O)[O-].[Zn+2] [Zinc acetate] | reduce the duration and overall severity |  |
| O=S(=O)([O-])[O-].[Zn+2] [Zinc sulphate] | reduce the duration and overall severity |  |
| O=C1O[C@H]([C@@H](O)CO)C(O)=C1O [ascorbic acid, L-ascorbic acid] |  | incidence, severity and integrated morbidity of the common cold (common cold [2]): lowers the incidence, severity and integrated morbidity |
| [Zn] [zinc, Zinc] | reducing the duration and severity | in vitro replication of the rhinovirus (rhinovirus): inhibits in vitro replication |
| Anthocyanins |  | TNF-α production (TNF-α): induce TNF-α production |
